In patent US8907107B2 (Hae Therapeutics Limited, priority 2009, dated 2014):
Marks after values point to notes of the source that are not given here. One block for each compound: values may come before it.

Legend:
physchem = experiment: physchem
Text: A trace pH=6.0, B trace pH=9.0. Excitation at 640 nm, slit widths 10 nm, 5×10^−7 M in water/CrEL.
FIG. 6. […] Excitation at 640 nm, slit widths 20 nm, 5×10^−7 M in water/CrEL. INaCl=150 mmol/L.

[1] = UV-visible absorption spectra; type: physicochemical; conditions: for λabs: longest-wavelength band, from compound data
MDA-MB-231 cells [2] = experiment: Confocal imaging of cell internalization and intracellular on/off switching of 8a; type: cell-based
Text: The difference in averaged whole cell red fluorescence taken from off-cells to on-cells was six-fold (FIG. 7).

[3] = Fluorescence emission spectra and quantum yield; type: physicochemical; conditions: for λmax emiss.: 5 × 10^−7 M, excitation 640 nm, slit widths 5 nm
MDA-MB-231 cells [4] = experiment: Cellular uptake of 16 and 17, CLSM imaging; type: cell-based; conditions: 5 μM; for cellular uptake: 1 hour incubation, DMEM; for subcellular localisation: 1 hour, 3-D reconstruction, DAPI co-staining
Description: These spectroscopic properties correlate perfectly to the optical requirements of commercially available confocal laser scanning microscopy (CLSM) instruments and small animal optical imaging instruments. Cellular uptake of DMEM solutions of 16 and 17 were utilised to illustrate their potential for in vitro imaging. Compounds 16 and 17 were incubated with MDA-MB-231 cells for 1 hour at 5 μM concentration and the excess dye was removed by washing with PBS before visualisation.
(§1) MDA-MB-231 cells were seeded into a 8 well chambered microscopy slide and they were grown overnight in DMEM media at 37° C. in the presence of 5% CO2. The media was then removed and 16 and 17 (5 μM) was added, followed by an incubation period of 1 hour in the dark. Cells were then washed with PBS to remove excess compound. Prior to visualization, cells were fixed in 3.7% formaldehyde solution, co-stained with DAPI and a coverslip was mounted onto the microscopy slide. In a similar way, E. coli cells were incubated with 21 (4 μM) in the dark for 10 minutes. The bacterial cells were washed with PBS and An aliquot of this solution was suspended onto a microscopy slide and allowed to dry. Before imaging, a coverslip was mounted onto the microscopy slide. Images were obtained using an LSM510 META confocal laser scanning microscope equipped with 63× numerical aperture 1.4 objective. DAPI was excited at 364 nm and detected with a band-pass filter 385-470 nm, whilst 16, 17 and 21 were excited at 633 nm and their fluorescence was detected through a 650 nm long-pass filter.

S. aureus cells = experiment: Bacterial cell uptake of 21, confocal imaging; type: cell-based, Staphylococcus aureus; conditions: gram-positive; 4 μM, 10 minutes
Description: as §1
(§2) It was envisaged that the bis-cationic nature of sensitizer 21 would be optimal for uptake into prokaryotic cells thereby broadening their utility. […] Confocal imaging confirmed the binding of 21 to both gram-positive and negative bacterial cells (FIGS. 28a, 28b).

E. coli cells = experiment: Bacterial cell uptake of 21, confocal imaging; type: cell-based, Escherichia coli; conditions: gram-negative; 4 μM, 10 minutes
Description: as §1, §2

[5] = 730 nm, excitation 640 nm, 5×10^−7 M in water/CrEL

λmax abs. ([1]; CH3OH, 5 × 10^−6 M): 687 nm
Structure (SMILES): O=C(O)CCCn1cc(COc2ccc(C3=NC(=Nc4[nH]c(-c5ccc(O)cc5)cc4-c4ccccc4)C(c4ccccc4)=C3)cc2)nn1 [Compound 8b, 4-[4-(4-[5-[5-(4-Hydroxyphenyl)-3-phenyl-1H-pyrrol-2-ylimino]-4-phenyl-5H-pyrrol-2-yl]-phenoxymethyl)-[1,2,3]triazol-1-yl]butyric acid]

λmax abs. ([1]; CH3OH, 5 × 10^−6 M): 687 nm
Structure (SMILES): CC(C)(C)OC(=O)NCCn1cc(COc2ccc(C3=NC(=Nc4[nH]c(-c5ccc(O)cc5)cc4-c4ccccc4)C(c4ccccc4)=C3)cc2)nn1 [Compound 8c, {2-[4-(4-{5-[5-(4-Hydroxyphenyl)-3-phenyl-1H-pyrrol-2-ylimino]-4-phenyl-5H-pyrrol-2-yl}-phenoxymethyl)-[1,2,3]triazol-1-yl]ethyl}carbamic acid t-butyl ester]

fluorescence quantum yield Φf ([3]; CHCl3, 1 as standard): 0.36
λemiss ([3]; CHCl3, from compound data): 717 nm
Φf ([3]; ethanol, 1 used as standard): 0.23
λmax emiss. ([3]; ethanol): 714 nm
ε×10^−3 ([1]; CHCl3, at 689 nm): 87.1
λabs ([1]; CHCl3): 689 nm
Structure (SMILES): COCCOCCOCCOc1ccc(-c2cc(-c3ccccc3)c3n2[B-](F)(F)[N+]2=C(c4ccc(OCCNC(=O)OC(C)(C)C)cc4)C=C(c4ccccc4)C2=N3)cc1 [Compound 9]

Φf ([3]; CHCl3): 0.30
λmax emiss. ([3]; DMEM): 722 nm
λmax emiss. ([3]; MeOH): 715 nm
λmax emiss. ([3]; PBS/BSA (4×10^−4 M BSA)): 718 nm
λmax abs. ([1]; CHCl3, 1 × 10^−6 M): 681 nm
λmax abs. ([1]; DMEM, 1 × 10^−6 M): 694 nm
λmax abs. ([1]; MeOH, 1 × 10^−6 M): 681 nm
λmax abs. ([1]; PBS/BSA, 1 × 10^−6 M): 692 nm
Structure (SMILES): O=C(O)COc1ccc(C2=[N+]3C(=Nc4c(-c5ccccc5)cc(-c5ccc(OCC(=O)O)cc5)n4[B-]3(F)F)C(c3ccccc3)=C2)cc1 [Compound 16]
cellular uptake (MDA-MB-231 cells [4]): efficiently taken up by cells
subcellular localisation (MDA-MB-231 cells [4]): primarily to the cytoplasm

Second part, the compound before the results:

Structure (SMILES): OC[C@H]1O[C@@H](n2cc(COc3ccc(-c4cc(-c5ccccc5)c5n4[B-](F)(F)[N+]4=C(c6ccc(O)cc6)C=C(c6ccccc6)C4=N5)cc3)nn2)[C@H](O)[C@@H](O)[C@H]1O [Compound 8a]
pKa (physchem): 6.9
fluorescence intensity difference between pH 6.6 and 8 (physchem; [5]): 6 fold
fluorescence intensity difference from pH 6.1 to 7.2 (physchem; [5]): greater than 2 fold
λmax abs. ([1]; CH3OH, 5 × 10^−6 M): 687 nm
intracellular emission after addition of basic buffer (MDA-MB-231 cells [2]; aqueous carbonate buffer pH 8.0): almost complete quenching
subcellular localisation of red emission (MDA-MB-231 cells [2]; incubation 1 h, DAPI co-staining): localised to the cytosol
intracellular emission after addition of acidic buffer (MDA-MB-231 cells [2]; pH 6.6 buffer): re-established
difference in averaged whole cell red fluorescence from off-cells to on-cells (MDA-MB-231 cells [2]; pH 8.0 versus pH 6.6 buffer): six-fold

Structure (SMILES): O=S(=O)(O)CCCOc1ccc(C2=[N+]3C(=Nc4c(-c5ccccc5)cc(-c5ccc(OCCCS(=O)(=O)O)cc5)n4[B-]3(F)F)C(c3ccccc3)=C2)cc1 [Compound 17]
Φf ([3]; CHCl3): 0.31
λmax emiss. ([3]; CHCl3): 726 nm
λmax emiss. ([3]; DMEM): 728 nm
λmax emiss. ([3]; PBS/BSA (4×10^−4 M BSA)): 718 nm
λmax abs. ([1]; CHCl3, 1 × 10^−6 M): 694 nm
λmax abs. ([1]; CHCl3, 1 × 10^−6 M, as tetra-butylammonium salt): 694^e nm
λmax abs. ([1]; DMEM, 1 × 10^−6 M): 694 nm
λmax abs. ([1]; MeOH, 1 × 10^−6 M): 687 nm
λmax abs. ([1]; PBS/BSA, 1 × 10^−6 M): 692 nm
cellular uptake (MDA-MB-231 cells [4]): efficiently taken up by cells
subcellular localisation (MDA-MB-231 cells [4]): primarily to the cytoplasm

Structure (SMILES): CCN(CC)Cc1ccc(C2=CC(c3ccc(OC)cc3)=[N+]3C2=Nc2c(-c4ccc(CN(CC)CC)cc4)cc(-c4ccc(OC)cc4)n2[B-]3(F)F)cc1 [Compound 20]
ε ([1]; CHCl3, at 691 nm): 76,000 Lmol^−1 cm^−1
λabs ([1]; CHCl3): 691 nm

Structure (SMILES): CC[N+](C)(CC)Cc1ccc(C2=CC(c3ccc(OC)cc3)=[N+]3C2=Nc2c(-c4ccc(C[N+](C)(CC)CC)cc4)cc(-c4ccc(OC)cc4)n2[B-]3(F)F)cc1.[I-].[I-] [Compound 21]
Φf ([3]; CHCl3): 0.22
λmax emiss. ([3]; CHCl3): 735 nm
λmax emiss. ([3]; DMEM): 737 nm
λmax emiss. ([3]; MeOH): 732 nm
λmax emiss. ([3]; PBS/BSA (4×10^−4 M BSA)): 730 nm
cellular uptake / binding (S. aureus cells): sufficient for cellular uptake
λmax abs. ([1]; CHCl3, 1 × 10^−6 M): 702 nm
λmax abs. ([1]; DMEM, 1 × 10^−6 M): 709 nm
λmax abs. ([1]; MeOH, 1 × 10^−6 M): 702 nm
λmax abs. ([1]; PBS/BSA, 1 × 10^−6 M): 706 nm
cellular uptake / binding (E. coli cells): sufficient for cellular uptake
